This is an account of results in patent US20230107941A1, “HEPATITIS B CAPSID ASSEMBLY MODULATORS” (Venatorx Pharmaceuticals, Inc., priority 2019, published 2023).

One may read the EC50 as the concentration that produces a half-maximal response. By CC50 is commonly meant the concentration at which the toxic effect on the cells reaches its halfway point. Lower therefore signals harm at low concentration.

SMILES strings stand for the structures.

One data set deals with HBV. Kind of data set: In vitro antiviral assay: anti-HBV replication in HepAD38 cells (extracellular HBV DNA by QPCR). The format is cell-based, hepatitis B virus (genotype D, serotype ayw). To be noted: Hepatitis B virus, HePAD38, 168 h, 7 days incubation, extracellular HBV DNA by QPCR, read-out: Anti-HBV EC50. The protocol:
The anti-HBV activity of the Capsid Assembly Modulators (CAMs) was evaluated in a cell based assay utilizing the human hepatoma cell line HepAD38 (Ladner, S K., et al., 1998). HepAD38 cells were derived from the parental line, HepG2, that were stably transfected with a construct containing an HBV genome (genotype D, serotype ayw) under the control of a tetracycline repressible CMV promoter. Upon removal of tetracycline, viral pre-genomic RNA (pgRNA) and mRNAs are expressed and infectious viral particles are assembled and secreted into the culture medium providing a reliable, robust system to measure multiple steps of the HBV life cycle. Disruption of capsid formation results in reduced levels of DNA-containing virus particles that are released into the culture supernatant. To quantify the effect of CAMs on HBV replication, we developed a sensitive QPCR-based assay that measures extracellular HBV DNA levels upon treatment of HepAD38 cells with various concentrations of test compounds.
HepAD38 cells were maintained in DMEM/F12 medium containing 10% FBS, 400 μg/mL G418 and 0.3 μg/mL tetracycline (tet+ media) to maintain repression of HBV replication. To evaluate each compound, HepAD38 cells were seeded into 24-well collagen coated culture plates (Corning BioCoat) at a density of 200,000 cells per well in 1 mL of medium without tetracycline (tet-media) and allowed to adhere overnight at 37° C., 5% CO2 in a humidified incubator. The following day, media was refreshed and a dose range of each compound was prepared by performing 1 log10 serial dilutions in 100% DMSO at 200× the desired assay concentration. Dilutions were then added to the cells resulting in a final dose range of 1 μM to 10 pM and the plates were returned to the incubator. Following 7 days of incubation, culture supernatants were harvested and HBV DNA levels were evaluated by QPCR and compared to the vehicle treated control wells (i.e. DMSO alone).
To quantify HBV DNA levels, cell culture supernatants were diluted 1:10 in sterile, nuclease-free water (Gibco). The diluted supernatants were subsequently added to a PCR master mix containing 1× Roche Light Cycler Master Mix, 0.5 μM forward primer, 0.5 μM reverse primer (Fwd: 5′-[…] (SEQ ID NO 1); Rev: 5′-[…] (SEQ ID NO 2)), 0.2 μM Roche Universal Probe Library Probe 25. The volume was brought to 20 μL with nuclease-free water and amplification of the HBV target sequence was performed using a Roche LightCycler 480 QPCR instrument. PCR extended out to 45 cycles with each cycle consisting of a denaturation step at 95° C. for 10 sec., followed by an annealing step at 60° C. for 10 sec. and a brief extension step at 72° C. for 1 sec.
Extracellular HBV DNA levels, expressed in copies/mL, were determined by comparison to a standard curve (10^2-10^9 copies/mL) using the Roche LightCycler analysis software. These values were subsequently converted to percent inhibition of HBV replication by dividing the HBV DNA levels in the experimental samples with those obtained from the vehicle control (˜1-2×10^5 copies/mL). Potency, expressed as an EC50 (the effective concentration required to inhibit 50% of HBV replication), was calculated from the dose-response curve using a 4-parameter non-linear regression analysis (GraphPad Prism). The nucleoside analog inhibitor entecavir was used as a positive control to validate each assay run. The EC50 value of entecavir in the HepAD38 assay was 0.5 nM, as previously reported in the literature.

Data set [1] is described as follows: In vitro cytotoxicity assay (MTT cell viability) in HepG2 cells. The data set is classed as cell-based, human. To be noted: human. How it is done: To evaluate antiviral selectivity, the cytotoxic activity of each compound was determined using a standard cell viability assay performed on the parental HepG2 cell line. Cell viability was determined by measuring the conversion of 3-(4,5-dimethylthiazol-2-yl)-2,5-diphenyltetrazolium bromide (MTT) to the insoluble formazan salt crystal that occurs in live cells. Briefly, HepG2 cells were seeded in 96-well plates at a density of 20,000 cells per well in […] (complete growth medium) and allowed to adhere overnight in a 37° C., […] humidified incubator. The next day, test agents were prepared by performing 8 half-log10 serial dilutions in 100% DMSO at 200× the final desired concentration in the assay. Compounds were tested over a range of concentrations from 30 μM to 1.0 nM in the assay. HepG2 cells were incubated in the presence of various concentrations of CAMs for 7 days in a 37° C., […] humidified incubator. At the completion of the 7-day incubation period, MTT reagent was added to each well and the mixture was incubated for an additional 3-4 hours. At the completion of the incubation period, all wells were aspirated to remove the culture medium. The formazan crystals were solubilized from the cell monolayers with 100% DMSO. Plates were briefly mixed on an orbital shaker and absorbance was measured at 492 nm using a Perkin-Elmer EnVision multi-label plate reader. All absorbance values were converted to a percentage of the signal obtained from the vehicle treated controls. Absorbance values at 492 nm are directly proportional to the number of viable cells present in the sample. A CC50 value (cytotoxic concentration that results in loss of 50% cell viability) was calculated from the dose-response curve by 4-parameter, non-linear regression analysis using the GraphPad Prism software. The positive control compound, staurosporine, reduced the viability of HepG2 cells in a dose-dependent manner (CC50=100 nM).

In the case of `Cc1c(C(=O)Nc2cc(Cl)nc(Cl)c2)c(C)n(C)c1C(=O)C(=O)N[C@]1(C)CC[C@@H](O)CC1` [Example 9, N-(2,6-dichloropyridin-4-yl)-5-(2-(((1r,4r)-4-hydroxy-1-methylcyclohexyl)amino)-2-oxoacetyl)-1,2,4-trimethyl-1H-pyrrole-3-carboxamide], the EC50 with HBV was less than 50 nM. Besides, in data set [1], the CC50 at 7 days is more than 30 µM.
For `Cc1c(C(=O)Nc2cc(Cl)cc(Cl)c2)c(C)n(C)c1C(=O)C(=O)N[C@H]1CC[C@@H](O)CC1` [Example 10, N-(3,5-dichlorophenyl)-5-(2-(((1s,4s)-4-hydroxycyclohexyl)amino)-2-oxoacetyl)-1,2,4-trimethyl-1H-pyrrole-3-carboxamide], in that order: less than 50 nM and 5 to 30 µM.
On to `Cc1c(C(=O)Nc2cc(Cl)nc(Cl)c2)c(C)n(C)c1C(=O)C(=O)N[C@]1(C)CC[C@H](O)CC1` [Example 11, N-(2,6-dichloropyridin-4-yl)-5-(2-(((1s,4s)-4-hydroxy-1-methylcyclohexyl)amino)-2-oxoacetyl)-1,2,4-trimethyl-1H-pyrrole-3-carboxamide], for which the EC50 in the data set with HBV is less than 50 nM. In data set [1], this compound displayed a CC50 at 7 days of more than 30 µM.
As for `Cc1c(C(=O)Nc2cccc(Cl)n2)c(C)n(C)c1C(=O)C(=O)N[C@H]1CC[C@@H](O)CC1` [Example 12, N-(6-chloropyridin-2-yl)-5-(2-(((1s,4s)-4-hydroxycyclohexyl)amino)-2-oxoacetyl)-1,2,4-trimethyl-1H-pyrrole-3-carboxamide], the EC50 in the data set with HBV is 50 to 499 nM. Also, in data set [1], the CC50 at 7 days was more than 30 µM.
As for `Cc1cc(NC(=O)c2c(C)c(C(=O)C(=O)N[C@H]3CCCC(F)(F)[C@@H]3O)n(C)c2C)ccc1F` [Example 13, 5-(2-(((1S,2R)-3,3-difluoro-2-hydroxycyclohexyl)amino)-2-oxoacetyl)-N-(4-fluoro-3-methylphenyl)-1,2,4-trimethyl-1H-pyrrole-3-carboxamide], the EC50 in the data set with HBV is less than 50 nM. This compound showed a CC50 at 7 days in data set [1] of more than 30 µM.
Regarding `Cc1cc(NC(=O)c2c(C)c(C(=O)C(=O)N[C@@H]3CC[C@@H](O)C[C@@H]3F)n(C)c2C)ccc1F` [Example 14, N-(4-fluoro-3-methylphenyl)-5-(2-(((1R,2S,4R)-2-fluoro-4-hydroxycyclohexyl)amino)-2-oxoacetyl)-1,2,4-trimethyl-1H-pyrrole-3-carboxamide], the EC50 with HBV is less than 50 nM. This compound yielded a CC50 at 7 days in data set [1] of more than 30 µM.
Regarding `Cc1cc(NC(=O)c2c(C)c(C(=O)C(=O)N[C@@H]3CC[C@H](O)C[C@H]3F)n(C)c2C)ccc1F` [Example 15, N-(4-fluoro-3-methylphenyl)-5-(2-(((1R,2R,4S)-2-fluoro-4-hydroxycyclohexyl)amino)-2-oxoacetyl)-1,2,4-trimethyl-1H-pyrrole-3-carboxamide], the EC50 with HBV is less than 50 nM. The CC50 at 7 days in data set [1] was more than 30 µM.
Regarding `Cc1c(C(=O)Nc2ccc(F)c(C#N)c2)c(C)n(C)c1C(=O)C(=O)N[C@]1(C)CC[C@@H](O)CC1` [Example 16, N-(3-cyano-4-fluorophenyl)-5-(2-(((1r,4r)-4-hydroxy-1-methylcyclohexyl)amino)-2-oxoacetyl)-1,2,4-trimethyl-1H-pyrrole-3-carboxamide], in the data set with HBV, the EC50 is less than 50 nM. In addition, the CC50 at 7 days in data set [1] is more than 30 µM.
On to `Cc1c(C(=O)Nc2ccc(F)c(C#N)c2)c(C)n(C)c1C(=O)C(=O)N[C@H]1CC[C@@H](O)CC1` [Example 17, N-(3-cyano-4-fluorophenyl)-5-(2-(((1s,4s)-4-hydroxycyclohexyl)amino)-2-oxoacetyl)-1,2,4-trimethyl-1H-pyrrole-3-carboxamide], for which, in the data set on HBV, the EC50 was less than 50 nM. Besides, the CC50 at 7 days in data set [1] is more than 30 µM.
For `Cc1c(C(=O)Nc2ccc(F)c(Br)c2)c(C)n(C)c1C(=O)C(=O)N[C@]1(C)CC[C@@H](O)CC1` [Example 18, N-(3-bromo-4-fluorophenyl)-5-(2-(((1r,4r)-4-hydroxy-1-methylcyclohexyl)amino)-2-oxoacetyl)-1,2,4-trimethyl-1H-pyrrole-3-carboxamide], in that order: less than 50 nM and more than 30 µM.
For `Cc1c(C(=O)Nc2ccc(F)c(Br)c2)c(C)n(C)c1C(=O)C(=O)N[C@H]1CC[C@@H](O)CC1` [Example 19, N-(3-bromo-4-fluorophenyl)-5-(2-(((1s,4s)-4-hydroxycyclohexyl)amino)-2-oxoacetyl)-1,2,4-trimethyl-1H-pyrrole-3-carboxamide], in that order: less than 50 nM and more than 30 µM.
As to `Cc1cc(NC(=O)c2c(C)c(C(=O)C(=O)N[C@H]3[C@@H]4CC[C@@H](C4)[C@H]3CO)n(C)c2C)ccc1F` [Example 20, N-(4-fluoro-3-methylphenyl)-5-(2-(((1R,2S,3R,4S)-3-(hydroxymethyl)bicyclo[2.2.1]heptan-2-yl)amino)-2-oxoacetyl)-1,2,4-trimethyl-1H-pyrrole-3-carboxamide], the EC50 in the data set with HBV was less than 50 nM. This compound also came in with a CC50 at 7 days in data set [1] of more than 30 µM.
`Cc1cc(NC(=O)c2c(C)c(C(=O)C(=O)N[C@H]3[C@H]4CC[C@H](C4)[C@H]3CO)n(C)c2C)ccc1F` [Example 21, N-(4-fluoro-3-methylphenyl)-5-(2-(((1S,2S,3R,4R)-3-(hydroxymethyl)bicyclo[2.2.1]heptan-2-yl)amino)-2-oxoacetyl)-1,2,4-trimethyl-1H-pyrrole-3-carboxamide]: in the data set with HBV, the EC50 was less than 50 nM. In addition, the 50% cytotoxic concentration (CC50) at 7 days in data set [1] was more than 30 µM.
For `Cc1cc(NC(=O)c2c(C)c(C(=O)C(=O)N[C@H]3C[C@@H]4CC[C@H]3C4)n(C)c2C)ccc1F` [Example 22, 5-(2-(((1S,2S,4R)-bicyclo[2.2.1]heptan-2-yl)amino)-2-oxoacetyl)-N-(4-fluoro-3-methylphenyl)-1,2,4-trimethyl-1H-pyrrole-3-carboxamide] the same measures were less than 50 nM and 5 to 30 µM.
Take `Cc1cc(NC(=O)c2c(C)c(C(=O)C(=O)NC3C[C@H]4C[C@@H]3CC4O)n(C)c2C)ccc1F` (stereo partly drawn) [Example 23, N-(4-fluoro-3-methylphenyl)-5-(2-(((1R,4R)-5-hydroxybicyclo[2.2.1]heptan-2-yl)amino)-2-oxoacetyl)-1,2,4-trimethyl-1H-pyrrole-3-carboxamide]: the EC50 in the data set on HBV was less than 50 nM. In data set [1], the CC50 at 7 days was more than 30 µM.
Regarding `Cc1cc(NC(=O)c2c(C)c(C(=O)C(=O)NC3C[C@@H]4CC(O)[C@H]3C4)n(C)c2C)ccc1F` (stereo partly drawn) [Example 24, N-(4-fluoro-3-methylphenyl)-5-(2-(((1S,4R)-6-hydroxybicyclo[2.2.1]heptan-2-yl)amino)-2-oxoacetyl)-1,2,4-trimethyl-1H-pyrrole-3-carboxamide], the 50% effective concentration (EC50) with HBV was less than 50 nM. The CC50 at 7 days in data set [1] is more than 30 µM.
